Our source for the IC50 values is patent publication US9765074B2, “Inhibitors of the renal outer medullary potassium channel” (Merck Sharp & Dohme Corp., priority 2013, dated 2017).

Each structure is given as a SMILES string.

In the experiment the target is T1, hROMK (hKir1.1) (Homo sapiens, UniProt P48048).
T1 construct: expressed in transfected cells
T1 sequence (P48048 1-391): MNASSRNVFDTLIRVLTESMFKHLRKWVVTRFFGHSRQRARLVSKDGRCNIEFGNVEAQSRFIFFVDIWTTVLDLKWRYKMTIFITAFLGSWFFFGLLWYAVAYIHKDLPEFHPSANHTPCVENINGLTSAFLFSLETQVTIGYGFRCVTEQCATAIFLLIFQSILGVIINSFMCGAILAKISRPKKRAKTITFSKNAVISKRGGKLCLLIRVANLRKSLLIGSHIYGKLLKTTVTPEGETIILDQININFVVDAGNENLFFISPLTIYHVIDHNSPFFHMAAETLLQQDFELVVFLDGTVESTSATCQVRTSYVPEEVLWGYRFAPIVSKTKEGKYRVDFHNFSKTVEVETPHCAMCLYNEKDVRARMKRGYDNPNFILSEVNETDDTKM
As to the kind of experiment: Thallium Flux Assay (ROMK channel functional thallium flux, FLIPR-Tetra). As to conditions: HEK293 cells stably expressing hROMK (hKir1.1); 30 min compound incubation. Format: cell-based. In outline: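 Thallium flux read by FluxOR fluorescence ([…]) for ~10 min after adding 3 mM Tl+/0.3 mM K+ final. Stable HEK-hKir1.1 cells were dye-loaded 90 min, exposed to compound 30 min at room temperature in ouabain/probenecid buffer; IC50 relative to a 3 μM control inhibitor.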
As to `CC1=C(N2CCC3(CCN(C[C@@H](O)c4ccc(-n5cnnn5)nc4)CC3)C2=O)COC1=O` [Example 19, 8-{(2S)-2-hydroxy-2-[6-(1H-tetrazol-1-yl)pyridin-3-yl]ethyl}-2-(4-methyl-5-oxo-2,5-dihydrofuran-3-yl)-1-oxo-2-aza-8-azoniaspiro[4.5]decane], it took 30 nM to reach half-maximal inhibition (IC50). This counts as double-digit nanomolar.

The compound `CC1=C(N2CCC3(CCN(C[C@H](O)c4ccc(-n5cnnn5)nc4C)CC3)C2=O)COC1=O` [Example 20, 8-{(2R)-2-hydroxy-2-[2-methyl-6-(1H-tetrazol-1-yl)pyridin-3-yl]ethyl}-2-(4-methyl-5-oxo-2,5-dihydrofuran-3-yl)-1-oxo-2-aza-8-azoniaspiro[4.5]decane] registered an IC50 of 30 nM.

Regarding `CC1=C(N2CCC3(CCN(C[C@@H](O)c4ccc(-n5cnnn5)nc4C)CC3)C2=O)COC1=O` [Example 21, 8-{(2S)-2-hydroxy-2-[2-methyl-6-(1H-tetrazol-1-yl)pyridin-3-yl]ethyl}-2-(4-methyl-5-oxo-2,5-dihydrofuran-3-yl)-1-oxo-2-aza-8-azoniaspiro[4.5]decane], the concentration for half-maximal inhibition (IC50) was found to be 40 nM. The IC50 values of the last two compounds are within 1.5-fold of each other.

`CC1=C(N2CCC3(CCN(C[C@H](O)c4ccc(-n5cnnn5)cn4)CC3)C2=O)COC1=O` [Example 22, 8-{(2S)-2-hydroxy-2-[5-(1H-tetrazol-1-yl)pyridin-2-yl]ethyl}-2-(4-methyl-5-oxo-2,5-dihydrofuran-3-yl)-1-oxo-2-aza-8-azoniaspiro[4.5]decane]: the midpoint of inhibition, the IC50, lay at 10 nM.

`CC1=C(N2CCC3(CCN(C[C@@H](O)c4ccc(-n5cnnn5)cn4)CC3)C2=O)COC1=O` [Example 23, 8-{(2R)-2-hydroxy-2-[5-(1H-tetrazol-1-yl)pyridin-2-yl]ethyl}-2-(4-methyl-5-oxo-2,5-dihydrofuran-3-yl)-1-oxo-2-aza-8-azoniaspiro[4.5]decane] returned an IC50 of 20 nM.

With `CC1=C(N2CCC3(CCN(C[C@H](O)c4cnc(-n5cnnn5)cn4)CC3)C2=O)COC1=O` [Example 24, 8-{(2S)-2-hydroxy-2-[5-(1H-tetrazol-1-yl)pyrazin-2-yl]ethyl}-2-(4-methyl-5-oxo-2,5-dihydrofuran-3-yl)-1-oxo-2-aza-8-azoniaspiro[4.5]decane], the 50% inhibitory concentration (IC50) turned out to be 20 nM.

`CC1=C(N2CCC3(CCN(C[C@@H](O)c4cnc(-n5cnnn5)cn4)CC3)C2=O)COC1=O` [Example 25, 8-{(2R)-2-hydroxy-2-[5-(1H-tetrazol-1-yl)pyrazin-2-yl]ethyl}-2-(4-methyl-5-oxo-2,5-dihydrofuran-3-yl)-1-oxo-2-aza-8-azoniaspiro[4.5]decane] registered an IC50 of 30 nM.

`CC1=C(N2CCC3(CCN(C[C@H](O)c4cnc(-n5cnnn5)c(F)c4)CC3)C2=O)COC1=O` [Example 26, 8-{(2R)-2-[5-fluoro-6-(1H-tetrazol-1-yl)pyridin-3-yl]-2-hydroxyethyl}-2-(4-methyl-5-oxo-2,5-dihydrofuran-3-yl)-1-oxo-2-aza-8-azoniaspiro[4.5]decane] had a 50% inhibitory concentration (IC50) of 40 nM.

In the case of `CC1=C(N2CCC3(CCN(C[C@@H](O)c4cnc(-n5cnnn5)c(F)c4)CC3)C2=O)COC1=O` [Example 27, 8-{(2S)-2-[5-fluoro-6-(1H-tetrazol-1-yl)pyridin-3-yl]-2-hydroxyethyl}-2-(4-methyl-5-oxo-2,5-dihydrofuran-3-yl)-1-oxo-2-aza-8-azoniaspiro[4.5]decane], the IC50 was 20 nM.

As for `CC1=C(N2CCC3(CCN(C[C@H](O)c4ncc(-n5cnnn5)cc4C)CC3)C2=O)COC1=O` [Example 28, 8-{(2S)-2-hydroxy-2-[3-methyl-5-(1H-tetrazol-1-yl)pyridin-2-yl]ethyl}-2-(4-methyl-5-oxo-2,5-dihydrofuran-3-yl)-1-oxo-2-aza-8-azoniaspiro[4.5]decane], half-maximal inhibition (IC50) was put at 30 nM.

In turn, `CC1=C(N2CCC3(CCN(C[C@@H](O)c4ncc(-n5cnnn5)cc4C)CC3)C2=O)COC1=O` [Example 29, 8-{(2R)-2-hydroxy-2-[3-methyl-5-(1H-tetrazol-1-yl)pyridin-2-yl]ethyl}-2-(4-methyl-5-oxo-2,5-dihydrofuran-3-yl)-1-oxo-2-aza-8-azoniaspiro[4.5]decane] registered an IC50 of 40 nM.

Compound `CC1=C(N2CCC3(CCN(C[C@H](O)c4ccc(-n5cnnn5)c(C)n4)CC3)C2=O)COC1=O` [Example 30, 8-{(2S)-2-hydroxy-2-[6-methyl-5-(1H-tetrazol-1-yl)pyridin-2-yl]ethyl}-2-(4-methyl-5-oxo-2,5-dihydrofuran-3-yl)-1-oxo-2-aza-8-azoniaspiro[4.5]decane] gave an IC50 of 20 nM.

For the compound `CC1=C(N2CCC3(CCN(C[C@@H](O)c4ccc(-n5cnnn5)c(C)n4)CC3)C2=O)COC1=O` [Example 31, 8-{(2R)-2-hydroxy-2-[6-methyl-5-(1H-tetrazol-1-yl)pyridin-2-yl]ethyl}-2-(4-methyl-5-oxo-2,5-dihydrofuran-3-yl)-1-oxo-2-aza-8-azoniaspiro[4.5]decane], the IC50 was 30 nM.

In turn, `CC1=C(N2CCC3(CCN(C[C@H](O)c4ccc(-n5cnnn5)nn4)CC3)C2=O)COC1=O` [Example 32, 8-{(2S)-2-hydroxy-2-[6-(1H-tetrazol-1-yl)pyridazin-3-yl]ethyl}-2-(4-methyl-5-oxo-2,5-dihydrofuran-3-yl)-1-oxo-2-aza-8-azoniaspiro[4.5]decane] had an IC50 of 20 nM.

As for `CC1=C(N2CCC3(CCN(C[C@@H](O)c4ccc(-n5cnnn5)nn4)CC3)C2=O)COC1=O` [Example 33, 8-{(2R)-2-hydroxy-2-[6-(1H-tetrazol-1-yl)pyridazin-3-yl]ethyl}-2-(4-methyl-5-oxo-2,5-dihydrofuran-3-yl)-1-oxo-2-aza-8-azoniaspiro[4.5]decane], the IC50 was determined as 20 nM.

In the case of `CC1=C(N2CCC3(CCN(C[C@H](O)c4ccc(-n5cnnn5)cc4)CC3)C2=O)COC1=O` [Example 34, 8-{(2R)-2-hydroxy-2-[4-(1H-tetrazol-1-yl)phenyl]ethyl}-2-(4-methyl-5-oxo-2,5-dihydrofuran-3-yl)-1-oxo-2-aza-8-azoniaspiro[4.5]decane], the IC50 is 10 nM.

As for `CC1=C(N2CCC3(CCN(C[C@@H](O)c4ccc(-n5cnnn5)cc4)CC3)C2=O)COC1=O` [Example 35, 8-{(2S)-2-hydroxy-2-[4-(1H-tetrazol-1-yl)phenyl]ethyl}-2-(4-methyl-5-oxo-2,5-dihydrofuran-3-yl)-1-oxo-2-aza-8-azoniaspiro[4.5]decane], 10 nM corresponded to half-maximal inhibition (IC50).

For `CC1=C(N2CCC3(CCN(C[C@H](O)c4ccc(-n5cnnn5)cc4F)CC3)C2=O)COC1=O` [Example 36, 8-{(2R)-2-[2-fluoro-4-(1H-tetrazol-1-yl)phenyl]-2-hydroxyethyl}-2-(4-methyl-5-oxo-2,5-dihydrofuran-3-yl)-1-oxo-2-aza-8-azoniaspiro[4.5]decane], it took 10 nM to reach half-maximal inhibition (IC50).

Take `CC1=C(N2CCC3(CCN(C[C@@H](O)c4ccc(-n5cnnn5)cc4F)CC3)C2=O)COC1=O` [Example 37, 8-{(2S)-2-[2-fluoro-4-(1H-tetrazol-1-yl)phenyl]-2-hydroxyethyl}-2-(4-methyl-5-oxo-2,5-dihydrofuran-3-yl)-1-oxo-2-aza-8-azoniaspiro[4.5]decane]: 10 nM corresponded to half-maximal inhibition (IC50).

As to `CC1=C(N2CCC3(CCN(C[C@H](O)c4ccc(-n5cnnn5)cc4C)CC3)C2=O)COC1=O` [Example 38, 8-{(2R)-2-hydroxy-2-[2-methyl-4-(1H-tetrazol-1-yl)phenyl]ethyl}-2-(4-methyl-5-oxo-2,5-dihydrofuran-3-yl)-1-oxo-2-aza-8-azoniaspiro[4.5]decane], half-maximal inhibition (IC50) required 10 nM.

Consider `CC1=C(N2CCC3(CCN(C[C@@H](O)c4ccc(-n5cnnn5)cc4C)CC3)C2=O)COC1=O` [Example 39, 8-{(2S)-2-hydroxy-2-[2-methyl-4-(1H-tetrazol-1-yl)phenyl]ethyl}-2-(4-methyl-5-oxo-2,5-dihydrofuran-3-yl)-1-oxo-2-aza-8-azoniaspiro[4.5]decane], for which the IC50 stood at 10 nM.

In turn, `CC1=C(N2CCC3(CCN(C[C@H](O)c4ncc(-n5cnnn5)cn4)CC3)C2=O)COC1=O` [Example 40, 8-{(2S)-2-hydroxy-2-[5-(1H-tetrazol-1-yl)pyrimidin-2-yl]ethyl}-2-(4-methyl-5-oxo-2,5-dihydrofuran-3-yl)-1-oxo-2-aza-8-azoniaspiro[4.5]decane] gave a half-maximal inhibitory concentration (IC50) of 200 nM.

Compound `CC1=C(N2CCC3(CCN(C[C@@H](O)c4ncc(-n5cnnn5)cn4)CC3)C2=O)COC1=O` [Example 41, 8-{(2R)-2-hydroxy-2-[5-(1H-tetrazol-1-yl)pyrimidin-2-yl]ethyl}-2-(4-methyl-5-oxo-2,5-dihydrofuran-3-yl)-1-oxo-2-aza-8-azoniaspiro[4.5]decane] returned an IC50 of 160 nM.

`Cc1nc(-n2cnnn2)ccc1[C@H](O)CN1C2CCC1CC1(CCN(C3=CC(=O)OC3)C1=O)C2` (stereo partly drawn) [Example 42, (1R,5R)-8-{(2S)-2-hydroxy-2-[2-methyl-6-(1H-tetrazol-1-yl)pyridin-3-yl]ethyl}-2′-oxo-1′-(5-oxo-2,5-dihydrofuran-3-yl)spiro[8-azoniabicyclo[3.2.1]octane-3,3′-pyrrolidine]] gave an IC50 of 20 nM.

Consider `Cc1nc(-n2cnnn2)ccc1[C@@H](O)CN1C2CCC1CC1(CCN(C3=CC(=O)OC3)C1=O)C2` (stereo partly drawn) [Example 43, (1R,5R)-8-{(2R)-2-hydroxy-2-[2-methyl-6-(1H-tetrazol-1-yl)pyridin-3-yl]ethyl}-2′-oxo-1′-(5-oxo-2,5-dihydrofuran-3-yl)spiro[8-azoniabicyclo[3.2.1]octane-3,3′-pyrrolidine]], for which it took 10 nM to reach half-maximal inhibition (IC50).

For orientation: IC50 means the concentration that gives 50% inhibition. Higher therefore signals weaker potency in that assay.
